≈ marks a conversion by molar mass, not a printed value. Where “and” joins values, the source holds several entries; their conditions need not be identical. Equal entries are not always repeated. Marks after values point to notes of the source that are not given here.
Assays:
Solubility determination = format: physicochemical; settings: for solubility: thermodynamic from solid
[1] = Octanol/water partition coefficient determination; format: physicochemical
[2] = Stratum corneum/water partition coefficient determination; format: physicochemical, human
[3] = cited from earlier work
[4] = PBS pH 7.4 with 30% DMSO, 37 °C, pseudo first order
[5] = fresh rat plasma, 37 °C
[6] = pH 7.4
[7] = stratum corneum / 5% propylene glycol in water, 24 hrs

Molecule | solubility (Solubility determination; organic solvent or mixture, Solubility in IPM) [µM] | solubility (Solubility determination; pH 2.5, aqueous buffer, Solubility in water) [µM] | logP at 24 h ([1]; octanol/0.02 M phosphate buffer pH 2.5, pH 2.5) | Partition coefficient (LogK SC/ 5% PG water) ([2]; water substituted with 0.02 M phosphate buffer at pH 2.5, 24 hrs) | Solubility in 5% PG water (Solubility determination) [µM] | Solubility in Hexane (Solubility determination) [µM] | Solubility in IPM (Solubility determination) [µM] | Solubility in water (Solubility determination) [µM] | Partition coefficient (LogP octanol/water) [1] | Partition coefficient (LogK SC/ 5% PG water) [2, 7] | Hydrolysis in PBS (half life in hours) [4] [h] | Bioconversion in plasma (half life in min) [5] | Aqueous solution flux (steady state, across HEM) [6] | Increase of solubility in purified water relative to unionized DA (Solubility determination; pH 2.5) [fold] | Decrease of solubility in water relative to unionized DA (Solubility determination; pH 2.5) | octanol/water partition coefficient ([3]; ref Drug Bank website) | LogPO/W [3]
O=C(O)Cc1ccccc1Nc1c(Cl)cccc1Cl [DA, Diclofenac Acid, reference compound] | 12600 (≈ 3730 µg/mL) | 3.4 (≈ 1.01 µg/mL) | 4.57 | 2.97^a |  |  |  |  |  |  |  |  |  |  |  | 4.9 | 
Glycerol Diclofenac Ester [GD] |  |  |  |  | 662 | 386 | 69700 | 551 | 3.30 |  |  |  | 5.54(0.78) nmol·cm^−2·hr^−1 | > 100 |  |  | 
O=C(c1ccccc1)c1ccc2n1CCC2C(=O)O (stereo not drawn) [ketorolac] |  |  |  |  |  |  |  |  |  |  |  |  |  |  |  |  | around 1

Second part, led by results:

solubility (Solubility determination; organic solvent or mixture, Solubility in IPM) [µM] | solubility (Solubility determination; pH 2.5, aqueous buffer, Solubility in water) [µM] | logP at 24 h ([1]; octanol/0.02 M phosphate buffer pH 2.5, pH 2.5) | Partition coefficient (LogK SC/ 5% PG water) ([2]; water substituted with 0.02 M phosphate buffer at pH 2.5, 24 hrs) | Solubility in 5% PG water (Solubility determination) [µM] | Solubility in Hexane (Solubility determination) [µM] | Solubility in IPM (Solubility determination) [µM] | Solubility in water (Solubility determination) [µM] | Partition coefficient (LogP octanol/water) [1] | Partition coefficient (LogK SC/ 5% PG water) [2, 7] | Hydrolysis in PBS (half life in hours) [4] [h] | Bioconversion in plasma (half life in min) [5] | Aqueous solution flux (steady state, across HEM) [6] | Increase of solubility in purified water relative to unionized DA (Solubility determination; pH 2.5) [fold] | Decrease of solubility in water relative to unionized DA (Solubility determination; pH 2.5) | Molecule | octanol/water partition coefficient ([3]; ref Drug Bank website) | LogPO/W [3]
 |  |  |  | 4.8 (≈ 1.7 µg/mL) | 2220 (≈ 786 µg/mL) | 13600 (≈ 4820 µg/mL) | 3.3 (≈ 1.17 µg/mL) | 4.08 | 2.58 | 63.9 | 2.4 min and 2.41 min | 0.84(0.25) nmol·cm^−2·hr^−1 |  |  | O=C(Cc1ccccc1Nc1c(Cl)cccc1Cl)OCCCO [PD, 1,3 Propylene Glycol Diclofenac Ester] |  | 
 |  |  |  | 1.9 (≈ 0.589 µg/mL) | 21000 (≈ 6510 µg/mL) | 43000 (≈ 13300 µg/mL) | 1.9 (≈ 0.589 µg/mL) | 5.00 | 3.56 | 34.6 |  |  |  | more than 2 folds | COC(=O)Cc1ccccc1Nc1c(Cl)cccc1Cl [MD, Methanol Diclofenac Ester] |  | 

Source: paper PMC4772728 (Drug development and industrial pharmacy, 2013)
